Results from patent US20170298083A1, “NEW IMMUNOSTIMULATORY COMPOUNDS” (Bernhard-Nocht-Institut für Tropenmedizin, priority 2014, published 2017).

Experiments:
human NKT cells = experiment: human iNKT cell assay: intracellular cytokine production in whole PBMCs by FACS; type: cell-based; conditions: human PBMC, 15 h, 1 μg/ml αGalCer or 10 μg/ml purified EhLPPG, FIG. 1
[1] = liver toxicity: serum ALT after intraperitoneal injection; type: in vivo; conditions: C57BL/6 mice, four-time intraperitoneal injection; EhLPPG 1, 10, 25 and 50 μg/ml; αGalCer 0.1, 1 and 10 μg/ml
Leishmania major = experiment: in vitro Leishmania assay: infected bone marrow derived macrophages; conditions: for percentage of L. major infected macrophages / parasite load per macrophage: BMM, 48 h

CCCCCCCCCCCCCCCCCCCCCCCCCC(=O)N[C@@H](CO[C@H]1O[C@H](CO)[C@H](O)[C@H](O)[C@H]1O)[C@H](O)[C@H](O)CCCCCCCCCCCCCC [αGalCer, α-galactosylceramide]
production of tumor necrosis factor (TNF) α and IL-17 in NKT cells (human NKT cells): led to the production of tumor necrosis factor (TNF) α and IL-17
CD4+NKT cells positive for IFN-γ and IL-4 (human NKT cells; αCD28 co-stimulant): considerable amounts of CD4+NKT cells positive for IFN-γ and IL-4
liver ALT enzyme level in serum [1]: significant increase in the ALT levels
percentage of L. major infected macrophages (Leishmania major; spleen-derived lymphocytes co-incubated, FIG. 5B): significantly reduced
parasite load per macrophage (Leishmania major; with addition of spleen cells, FIG. 5D): a significant reduction
percentage of L. major infected macrophages (Leishmania major; without spleen cells, FIG. 5A): significantly reduced
parasite load per macrophage (Leishmania major; without spleen cells, FIG. 5C): significantly reduced the amount of parasites within the macrophages
expression of iNOS (Leishmania major; preliminary results, data not shown): increase in the expression of iNOS
